Source: patent US7531565B2, “Imidazolidin-2-one derivatives as selective androgen receptor modulators (SARMS)” (Janssen Pharmaceutica, N.V., priority 2004, dated 2009)
Where two headings read alike, the source gives them in different places.

Molecular target: T1, androgen receptor (Rattus norvegicus, UniProt P15207)
T1 sequence (P15207 1-902): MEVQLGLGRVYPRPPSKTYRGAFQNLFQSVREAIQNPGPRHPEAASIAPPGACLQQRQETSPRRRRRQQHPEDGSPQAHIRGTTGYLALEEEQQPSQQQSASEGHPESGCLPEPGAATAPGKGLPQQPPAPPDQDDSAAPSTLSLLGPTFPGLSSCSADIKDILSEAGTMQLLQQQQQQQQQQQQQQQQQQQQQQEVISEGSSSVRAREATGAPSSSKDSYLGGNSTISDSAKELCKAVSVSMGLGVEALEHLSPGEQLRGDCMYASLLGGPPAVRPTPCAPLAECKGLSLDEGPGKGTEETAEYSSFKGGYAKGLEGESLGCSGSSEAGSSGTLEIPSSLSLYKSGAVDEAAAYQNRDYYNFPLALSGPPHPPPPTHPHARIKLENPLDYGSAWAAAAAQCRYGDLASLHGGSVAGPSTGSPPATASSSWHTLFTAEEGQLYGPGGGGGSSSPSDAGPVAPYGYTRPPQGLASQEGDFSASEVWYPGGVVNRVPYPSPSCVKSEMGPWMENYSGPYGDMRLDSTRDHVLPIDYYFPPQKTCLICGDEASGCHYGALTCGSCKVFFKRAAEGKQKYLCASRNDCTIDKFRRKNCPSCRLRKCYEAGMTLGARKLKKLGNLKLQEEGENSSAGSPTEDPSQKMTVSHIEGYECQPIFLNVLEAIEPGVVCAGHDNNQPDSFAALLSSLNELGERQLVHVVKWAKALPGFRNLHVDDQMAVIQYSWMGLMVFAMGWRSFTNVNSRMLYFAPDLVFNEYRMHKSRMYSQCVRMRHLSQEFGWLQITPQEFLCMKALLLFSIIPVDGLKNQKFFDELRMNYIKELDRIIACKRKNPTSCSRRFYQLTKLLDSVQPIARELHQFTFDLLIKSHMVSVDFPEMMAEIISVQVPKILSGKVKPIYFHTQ
Assay: L929 androgen receptor functional assay, adenovirus transduction
Format: cell-based
Design: expressed in transfected cells
Settings: for % Activition @ 3 μM: agonist testing (no R1881), luciferase
Description: L929 cells were plated in 96-well plates at 20,000 cells per well, in DMEM/F12 (GIBCO) containing 10% (v/v) charcoal-treated fetal bovine serum (Hyclone) and lacking phenol red. The plates were then incubated overnight at 37° C. in 5% (v/v) humidified CO2.
Test compound dilutions were prepared in 100% (v/v) DMSO, if necessary. Each dilution was made to 1250× the final desired assay concentration. First, 2 mL of DMEM/F12 lacking phenol red was pipetted into the wells of a 2-mL 96-well assay block. Next, 4 μL of the 1250× test compound dilutions were pipetted into each well of the assay block. The mixtures within the well were then carefully mixed by pipette.
In a 15 mL or 50 mL sterile centrifuge tube, a 2.5 nM (2.5×) dilution of R1881 (methyl-trienolone) in DMEM/F12 lacking phenol red was prepared. In a second 15 mL or 50 mL centrifuge tube a solution containing an equal volume of DMEM to the first and an equal volume of 100% (v/v) DMSO to the volume of R1881 used in the first tube was prepared.
In a 15 mL or 50 mL sterile centrifuge tube, a dilution in DMEM/F12 of the adenovirus AdEasy+rAR at an moi of 1:500 per well was prepared. The medium was removed from the 96-well plates by inversion and dried, inverted, very briefly. As soon as possible after medium removal, 40 μL of the diluted unlabeled test compound was added to each well, in duplicate. To each well designated for antagonist testing was added 40 μL of the 2.5 nM R1881 dilution to the wells for antagonist testing. To each well designated for agonist testing was added 40 μL of the DMSO dilution. Then 20 μL of the diluted adenovirus were added to all wells. The plates were incubated for 48 hours at 37° C. in 5% (v/v) humidified CO2.
To each well was added 100 μL of Steady-Glo luciferase assay substrate (Promega) and the plates were placed on a rotary shaker for 1 min. The plates were then incubated at room temperature in the dark for one hour. The contents of each well were then transferred to a white microtiter plate (Packard) and read on a Luminoskan Ascent (Thermo Lab Systems).
L929 AR percent activity was determined by testing dilutions of the test compound using a concentration of 3000 nM unless otherwise noted. L929 percent inhibition was determined by testing dilutions of the test compound using a concentration of 3000 nM. EC50s and IC50s were determined by testing serial dilutions of the test compound (usually duplicate ten half-log dilutions starting at 10 μM). Luciferase activity per well were measured and EC50s and IC50s determined by linear regression.
Representative compounds of the present invention were tested for functional activity at the androgen receptor according to the procedure described above with results as listed in Table 4.

[1] = 3 μM, L929 cells, antagonist testing with R1881, luciferase

Compound	% Activition @ 3 μM (3 μM, L929 cells)	% Inhibition @ 3 μM [1]	inhibition at 3 µM (3 μM, L929 cells, antagonist testing with R1881, luciferase, read-out: % Inhibition @ 3 μM)	inhibition at 3 µM (L929, read-out: % Inhibition @ 3 μM)
COC(=O)C1(C)CN(c2ccccc2)C(=O)N1 (racemic) [Compound 4b]	0%	34%		
COC(=O)C1(C)CN(c2ccc(OC)cc2)C(=O)N1 (racemic) [Compound 4c]	2%	5%		
COC(=O)C1(C)CN(c2ccc(Cl)c(C(F)(F)F)c2)C(=O)N1 (racemic) [Compound 4d]	0%	1%		
COC(=O)C1(C)CN(c2ccc(C#N)c(C(F)(F)F)c2)C(=O)N1 (racemic) [Compound 4e]	0%	−15%		
CC1(C(=O)O)CN(c2ccccc2)C(=O)N1 (racemic) [Compound 5b]	0%	32%		
COc1ccc(N2CC(C)(C(=O)O)NC2=O)cc1 (racemic) [Compound 5c]	−5%	−14%		
CC1(C(=O)O)CN(c2ccc(Cl)c(C(F)(F)F)c2)C(=O)N1 (racemic) [Compound 5d]	0%	−30%		
CC1(C(=O)Nc2ccccc2)CN(c2ccccc2)C(=O)N1 (racemic) [Compound 6b]	0%	54%		
COc1ccc(N2CC(C)(C(=O)Nc3ccc(C#N)c(C(F)(F)F)c3)NC2=O)cc1 (racemic) [Compound 6c]	0%	11%		
CC1(C(=O)Nc2ccc(C#N)c(C(F)(F)F)c2)CN(c2ccccc2)C(=O)N1 (racemic) [Compound 6d]	0%	59%		
CC1(C(=O)Nc2ccc([N+](=O)[O-])c(C(F)(F)F)c2)CN(c2ccccc2)C(=O)N1 (racemic) [Compound 6e]	2%	96%		
CC1(C(=O)Nc2cccc(C(F)(F)F)c2)CN(c2ccc(F)cc2)C(=O)N1 (racemic) [Compound 6g]	0%	−12%		
CC1(C(=O)Nc2cc(C(F)(F)F)cc(C(F)(F)F)c2)CN(c2ccc(F)cc2)C(=O)N1 (racemic) [Compound 6h]	0%	21%		
CC1(C(=O)Nc2ccc(C(F)(F)F)nc2)CN(c2ccccc2)C(=O)N1 (racemic) [Compound 6j]	0%	29%		
CC1(C(=O)O)CN(c2ccc(F)cc2)C(=O)N1 (centres unmarked) [Compound 5a, 1-(4-Fluoro-phenyl)-4-methyl-2-oxo-imidazolidine-4-carboxylic acid]	1%		15%	
CC1(C(=O)Nc2ccc(C#N)c(C(F)(F)F)c2)CN(c2ccc(F)cc2)C(=O)N1 (centres unmarked) [Compound 6a, 1-(4-Fluoro-phenyl)-4-methyl-2-oxo-imidazolidine-4-carboxylic acid (4-cyano-3-trifluoromethyl-phenyl)-amide]	9%			37%
